Experiment in all cases: growth of human tumour cells (NCI), 48 h
Experiment [1] concerns LOX IMVI melanoma.
Experiment [2] deals with KM12 colon.
Experiment [3] concerns MCF7 breast.
In experiment [4] the test system is SF-295 CNS.
For experiment [5], the system named is SNB-75 CNS.
Experiment [6] deals with MOLT-4 leukemia.
Experiment [7] has as its system NCI-H522 lung.
For experiment [8], the system named is HOP-92 NSCLC.
In experiment [9] the test system is HL-60(TB) leukemia.
The test system of experiment [10] is 786-0 renal.

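The compound was tested at five concentrations on cells cultured in 96-well plates, with a 48-hour exposure period. GI50 = concentration required for 50% inhibition of growth. At the TGI there is no net growth.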

For `O=S(=O)(c1ccc(Cl)cc1)C(Cl)(Cl)Cl`, the GI50 in experiment [1] is 1.77 µM; in experiment [2] it was 3.27 µM; in experiment [3], 2.72 µM; in [4] it was 5.3 µM; in experiment [5], 2.34 µM; in [6] it was 0.91 µM. Also, the GI50 in [7] is 2.95 µM; in [8], 1.71 µM; in [9], 1.8 µM; in experiment [10], 0.968 µM. Besides, the TGI in experiment [1] is 6.58 µM; in [2], 13.9 µM; in [3], greater than 100 µM; in experiment [4], 23 µM; in [5], 20.3 µM; in experiment [6], greater than 44.3 µM. Also, the TGI worked out at 21 µM in [7], 23.2 µM in experiment [8], 7.7 µM in experiment [9] and 18.1 µM in experiment [10].

In the case of `CO/N=C(\COc1ccc2c(c1)[nH]c1ccccc12)c1ccc(F)cc1`, the GI50 was greater than 100 µM in experiment [1]; greater than 100 µM in experiment [2]; greater than 100 µM in experiment [3]; 30.1 µM in [4]; 9.17 µM in experiment [5]; greater than 100 µM in experiment [7]. Also, the GI50 is 13.7 µM in experiment [8] and 16.8 µM in experiment [10]. Further, the TGI is greater than 100 µM in [1]; greater than 100 µM in experiment [2]; greater than 100 µM in experiment [3]; greater than 100 µM in [4]; 89.6 µM in experiment [5]; greater than 100 µM in experiment [7]. Moreover, the TGI in experiment [8] was 55.2 µM; in experiment [10], greater than 100 µM.

In the case of `COc1cc2c3c(n(C)c(=O)c2cc1OC)-c1cc2c(cc1/C3=C\CCCCN1C(=O)c3ccccc3C1=O)OCO2`, the GI50 is 10.7 µM in experiment [1]; 59.3 µM in [2]; 10.8 µM in experiment [3]; 11 µM in experiment [4]; 28.5 µM in [5]; 2.07 µM in [6]. The GI50 in experiment [10] was 16 µM. Moreover, the TGI in experiment [1] was 22.5 µM; in experiment [2], greater than 100 µM; in experiment [3] it was 53.9 µM; in experiment [4], 68.1 µM; in [5] it was greater than 100 µM; in [6], 13.4 µM. In addition, the TGI was 7.49 µM in [8] and greater than 100 µM in experiment [10].

`COc1ccc2c(c1)N(CCO)C1=C(C(=O)OC1)C2c1cccc(F)c1` (stereo unspecified): the GI50 is 0.454 µM in [1]; 0.255 µM in experiment [2]; 0.202 µM in [3]; 0.196 µM in experiment [4]; 0.186 µM in experiment [5]; 0.538 µM in experiment [6]. The GI50 is 0.118 µM in experiment [7], 0.525 µM in [8], 0.161 µM in experiment [9] and 0.644 µM in [10]. The TGI was greater than 50 µM in [1]; greater than 50 µM in experiment [2]; greater than 50 µM in [3]; greater than 50 µM in experiment [4]; 13.6 µM in experiment [5]; greater than 50 µM in experiment [6]. The TGI was 1.08 µM in experiment [7], greater than 23.3 µM in [8], 0.781 µM in [9] and greater than 50 µM in experiment [10].

Regarding `OCC1OC(n2cnc3c(N/N=C\c4ccccn4)ncnc32)C(O)C1O` (stereo unspecified), the GI50 in experiment [1] is 0.0971 µM; in experiment [2], 0.434 µM; in [3], 0.122 µM; in experiment [4] it was 0.936 µM; in experiment [5] it was 0.613 µM; in [6] it was 0.0532 µM. In addition, the results for the GI50 in experiment [7], in [9] and in experiment [10] were 0.182 µM, 0.0247 µM and 0.256 µM, respectively. The TGI is greater than 100 µM in experiment [2]; greater than 100 µM in [3]; 16.5 µM in [4]; 12.9 µM in experiment [5]; greater than 100 µM in [6]; greater than 100 µM in [7]. Moreover, the TGI in experiment [9] was 0.204 µM; in experiment [10] it was 1.01 µM.

As to `O=C(/C=C/c1cc2ccccc2[nH]c1=O)/C=C/c1cc2ccccc2[nH]c1=O`, the GI50 was 4.32 µM in experiment [2]; 3.84 µM in experiment [3]; greater than 25.3 µM in [4]; greater than 26.3 µM in experiment [5]; 24 µM in experiment [6]; greater than 100 µM in experiment [8]. The GI50 in experiment [9] is greater than 32.3 µM. Moreover, the TGI was 8.59 µM in experiment [2]; greater than 47.7 µM in experiment [3]; greater than 86.2 µM in experiment [4]; greater than 67.5 µM in [5]; greater than 100 µM in experiment [6]; greater than 47 µM in experiment [7]. Further, the TGI in experiment [8] is greater than 100 µM; in [9], greater than 100 µM; in experiment [10], greater than 26.1 µM.

`N#CC1(C(N)=O)C(c2ccc(Cl)cc2)CC(=O)CC1c1ccc(Cl)cc1` (stereo unspecified): the GI50 in [1] was 17 µM; in experiment [2], 19.4 µM; in experiment [3], 17.4 µM; in experiment [4] it was 15 µM; in experiment [6], 17.1 µM; in [7], 14.2 µM. Besides, the GI50 in [8] is 16.4 µM; in experiment [9], 20.2 µM; in experiment [10], 17.1 µM. Further, the TGI in experiment [1] was 33.3 µM; in experiment [2], 43.9 µM; in experiment [3] it was 31.7 µM; in [4], 33.4 µM; in [6] it was 54.3 µM; in experiment [7], 29.5 µM. The TGI in experiment [8] stood at 32.1 µM; in experiment [9], 51.6 µM; in experiment [10], 30.8 µM.

For the compound `NNC(=O)CS(=O)(=O)Nc1ncccn1`, the TGI in experiment [1], in experiment [2], in experiment [3], in experiment [4], in [5] and in experiment [7] was greater than 100 µM throughout. The TGI in experiment [8] and in experiment [10] was greater than 100 µM in each case.

`O=C1/C(=C/c2ccccc2[N+](=O)[O-])Cc2ccccc21`: the GI50 in experiment [1] was 1.88 µM; in experiment [2] it was 3.97 µM; in experiment [3], 1.38 µM; in experiment [6] it was 2.92 µM; in experiment [7], 1.7 µM; in [8] it was 1.22 µM. The GI50 in experiment [9] was 2.85 µM; in [10] it was 2.57 µM. Besides, the TGI came out at 4.39 µM in [1]; 15.7 µM in [2]; 11.8 µM in [3]; 9.04 µM in experiment [6]; 3.13 µM in experiment [7]; 3.36 µM in experiment [8]. In addition, the values for the TGI in experiment [9] and in [10] were 7.12 µM and 6.9 µM, respectively.

The record behind these values is PubChem BioAssay (NCI).
